Data taken from PubChem BioAssay (NCI).
Several values for one entry are separate records, joined by “and”; a condition that tells them apart may be missing. Equal entries are not always repeated.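 All cell lines were grown in 96-well plates and treated with compound for 48 hours. At the GI50, growth is halved. TGI marks complete inhibition of growth.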

Columns and labels:
Test in all cases: NCI-60 cell line screen, 48 h
[1] = system: A498 renal
[2] = system: BT-549 breast
[3] = system: CAKI-1 renal
[4] = system: HS 578T breast
[5] = system: MDA-MB-435
[6] = system: MOLT-4 leukemia
[7] = system: OVCAR-3 ovarian
[8] = system: SF-295 CNS
[9] = system: SR leukemia
[10] = system: SW-620 colon

CS(=O)c1ccc(-c2nc(-c3ccc(F)cc3)c(-c3ccncc3)[nH]2)cc1 (stereo unspecified)
GI50 [1]: 10.6 µM | TGI [1]: 53.5 µM | GI50 [2]: 21 µM | TGI [2]: 72.4 µM | GI50 [3]: 21.6 µM | TGI [3]: > 81.9 µM | GI50 [4]: 33.3 µM | TGI [4]: > 100 µM | GI50 [5]: 20.7 µM | TGI [5]: > 100 µM | GI50 [6]: 28.3 µM | TGI [6]: > 96.4 µM | GI50 [7]: 25.9 µM | TGI [7]: > 100 µM | GI50 [8]: 29.1 µM | TGI [8]: > 71.6 µM | GI50 [9]: 16.4 µM | TGI [9]: > 77 µM | GI50 [10]: 30 µM | TGI [10]: > 75 µM

Cc1c2ncccc2nc2[nH]c3ccc(OCCN(C)C)cc3c12
GI50 [1]: 5.18 µM | TGI [1]: 20 µM | GI50 [2]: 7.46 µM | TGI [2]: 29.7 µM | GI50 [3]: 3.61 µM | TGI [3]: 21.3 µM | GI50 [4]: 3.77 µM | TGI [4]: 33.7 µM | GI50 [5]: 3.12 µM | TGI [5]: 15.7 µM | GI50 [6]: 0.6 µM | TGI [6]: 12.5 µM | GI50 [7]: 3.62 µM | TGI [7]: 19.7 µM | GI50 [8]: 1.59 µM | TGI [8]: 13 µM | GI50 [9]: 0.734 µM | TGI [9]: 7.95 µM | GI50 [10]: 0.94 µM | TGI [10]: 13.7 µM

CCOC(=O)N1C/C(=C/c2ccc(OC)cc2)C(=O)/C(=C/c2ccc(OC)cc2)C1
GI50 [1]: 3.13 µM | TGI [1]: > 29 µM | GI50 [2]: 2.01 µM | TGI [2]: 4.47 µM | GI50 [3]: 4.67 µM | TGI [3]: > 70.1 µM | GI50 [4]: 2.85 µM | TGI [4]: > 100 µM | GI50 [5]: 1.19 µM | TGI [5]: 4.71 µM | GI50 [6]: 3.99 µM | TGI [6]: > 100 µM | GI50 [7]: 2.75 µM | TGI [7]: 7.81 µM | GI50 [8]: 2.17 µM | TGI [8]: 5.81 µM | GI50 [9]: 0.579 µM | TGI [9]: > 32.7 µM | GI50 [10]: 1.37 µM | TGI [10]: 4.4 µM

CC1CCCN(CC(O)CN2CCCc3ccccc32)C1 (stereo unspecified)
TGI [1]: > 100 µM | TGI [2]: > 100 µM | TGI [3]: > 100 µM | TGI [4]: > 100 µM | TGI [5]: > 100 µM | TGI [6]: > 100 µM | TGI [7]: > 100 µM | TGI [8]: > 100 µM | TGI [9]: > 100 µM | TGI [10]: > 100 µM

O=C1C=CN(C2OC(CO)C(O)C2O)C(=O)C1 (stereo unspecified)
TGI [1]: > 2500 µM | TGI [2]: > 2500 µM | GI50 [3]: 17.3 µM | TGI [3]: 296 µM and 1010 µM | TGI [4]: > 747 µM | TGI [5]: > 2500 µM | TGI [6]: 476 µM | TGI [7]: > 1870 µM | GI50 [8]: 116 µM and 59.1 µM | TGI [8]: 625 µM and > 2060 µM | TGI [9]: > 2500 µM | GI50 [10]: 71.4 µM | TGI [10]: 625 µM and > 2500 µM

NC(N)=N/N=C/c1cccc(Cl)c1Cl
GI50 [1]: 11.1 µM | TGI [1]: 25.6 µM | GI50 [2]: 13.2 µM | TGI [2]: 28.7 µM | GI50 [3]: 6.62 µM | TGI [3]: 21.8 µM | GI50 [4]: 12.2 µM | TGI [4]: 34.9 µM | GI50 [5]: 1.77 µM | TGI [5]: 3.89 µM | GI50 [6]: 6.13 µM | TGI [6]: 23.9 µM | GI50 [7]: 4.55 µM | TGI [7]: 14.9 µM | GI50 [8]: 2.83 µM | TGI [8]: 10.3 µM | GI50 [9]: 2.72 µM | TGI [9]: 11.2 µM | GI50 [10]: 2.25 µM | TGI [10]: 5.89 µM

C=CC[Se]C(=O)Cc1c(C)n(C(=O)c2ccc(Cl)cc2)c2ccc(OC)cc12
GI50 [1]: 1.52 µM | TGI [1]: 4.25 µM | GI50 [2]: 1.59 µM | TGI [2]: 3.01 µM | GI50 [3]: 1.66 µM | TGI [3]: 3.05 µM | GI50 [4]: 2.25 µM | TGI [4]: 7.33 µM | GI50 [5]: 2.71 µM | TGI [5]: 8.44 µM | GI50 [6]: 2.87 µM | TGI [6]: 8.72 µM | GI50 [7]: 1.78 µM | TGI [7]: 3.24 µM | GI50 [8]: 0.334 µM | TGI [8]: 1.45 µM | GI50 [9]: 2.29 µM | TGI [9]: 8.19 µM | GI50 [10]: 1.99 µM | TGI [10]: 4.42 µM

O=C(O)c1ccc(S(=O)(=O)N=Nc2c(O)[nH]c3ccccc23)cc1
TGI [1]: > 100 µM | TGI [2]: > 100 µM | TGI [3]: > 100 µM | TGI [4]: > 100 µM | TGI [5]: > 100 µM | TGI [6]: > 100 µM | TGI [7]: > 100 µM | TGI [8]: > 100 µM | TGI [9]: > 100 µM | TGI [10]: > 100 µM

COc1cccc2c1cc([N+](=O)[O-])c1c(C(=O)O)cc3c(c12)OCO3
GI50 [1]: 16 µM | TGI [1]: 32.9 µM and 83.4 µM | TGI [2]: > 100 µM | GI50 [3]: 17.8 µM | TGI [3]: > 100 µM | GI50 [4]: 36.3 µM | TGI [4]: > 100 µM | GI50 [5]: 41.5 µM | TGI [5]: > 100 µM | GI50 [6]: 40.9 µM | TGI [6]: > 100 µM | GI50 [7]: 26.1 µM | TGI [7]: 71.2 µM and > 100 µM | GI50 [8]: 17.4 µM | TGI [8]: > 100 µM | GI50 [9]: 24.9 µM | TGI [9]: 75.7 µM and 78.9 µM | GI50 [10]: 28.2 µM | TGI [10]: > 100 µM

CCOC(=O)c1c(C)n(CC(C)C)c2c1cc1oc(=O)c(=O)n3cnc2c13
GI50 [1]: 14.2 µM | TGI [1]: 41.3 µM | GI50 [2]: 15.7 µM | TGI [2]: 43 µM | GI50 [3]: 11.4 µM | TGI [3]: 29.2 µM | GI50 [4]: 11.8 µM | TGI [4]: 38.5 µM | GI50 [5]: 9.07 µM | TGI [5]: 16.8 µM | GI50 [6]: 15.8 µM | TGI [6]: > 50 µM | GI50 [7]: 11.2 µM | TGI [7]: 25.9 µM | GI50 [8]: 12.8 µM | TGI [8]: 33 µM | GI50 [9]: 10.4 µM | TGI [9]: > 50 µM | GI50 [10]: 1.79 µM | TGI [10]: 10.6 µM

O=C(N=Nc1c(O)[nH]c2c(Cl)cc(Cl)cc12)c1ccncc1
TGI [1]: > 100 µM | TGI [2]: > 100 µM | TGI [3]: 39 µM | TGI [4]: > 100 µM | TGI [5]: 33.7 µM | TGI [6]: > 100 µM | TGI [7]: 37.5 µM | TGI [8]: > 100 µM | TGI [9]: 69.2 µM | TGI [10]: > 100 µM

O=C1NC(=O)C2(CCC(O)C2)c2cc[n+]([O-])cc21 (stereo unspecified)
TGI [1]: > 100 µM | TGI [2]: > 100 µM | TGI [3]: > 100 µM | TGI [4]: > 100 µM | TGI [5]: > 100 µM | TGI [6]: > 100 µM | TGI [7]: > 100 µM | TGI [8]: > 100 µM | TGI [9]: > 100 µM | TGI [10]: > 100 µM

CCCC(=O)NC(c1ccc2c(c1)OCO2)c1ccc2cccnc2c1O (stereo unspecified)
GI50 [1]: 3.22 µM | TGI [1]: 12.6 µM | GI50 [2]: 2.09 µM | TGI [2]: 83.7 µM | GI50 [3]: 0.669 µM | TGI [3]: > 100 µM | GI50 [4]: 5.76 µM | TGI [4]: 78.8 µM | GI50 [5]: 3.7 µM | TGI [5]: > 100 µM | GI50 [6]: 0.441 µM | TGI [6]: > 100 µM | GI50 [7]: 0.427 µM | TGI [7]: 15.4 µM | GI50 [8]: 0.728 µM | TGI [8]: 42.6 µM | GI50 [9]: 0.402 µM | TGI [9]: > 100 µM | GI50 [10]: 1.2 µM | TGI [10]: > 100 µM

C=C1CC2(OC1=O)c1ccccc1C=Cc1ccccc12
TGI [1]: 25 µM | TGI [2]: 3.61 µM | TGI [3]: 6.08 µM | TGI [4]: 6.29 µM | TGI [5]: 3.37 µM | TGI [6]: 5.4 µM | TGI [7]: 8.9 µM | TGI [8]: 32.1 µM | TGI [9]: 9.17 µM | TGI [10]: 4.54 µM

O=C1C(Cl)=C(Nc2cccc(C(F)(F)F)c2)C(=O)N1Cc1ccccc1Cl
GI50 [1]: 5.06 µM | TGI [1]: 19.7 µM | GI50 [2]: 1.95 µM | TGI [2]: 18.1 µM | GI50 [3]: 4.84 µM | TGI [3]: 21.6 µM | GI50 [4]: 8.34 µM | TGI [4]: 43.5 µM | GI50 [5]: 2.49 µM | TGI [5]: 12.2 µM | GI50 [6]: 2.56 µM | TGI [6]: 8.53 µM | GI50 [7]: 4.33 µM | TGI [7]: 24.8 µM | GI50 [8]: 2.39 µM | TGI [8]: 24.9 µM | GI50 [9]: 3.72 µM | TGI [9]: 28 µM | GI50 [10]: 2.38 µM | TGI [10]: 22.2 µM

O=C(O)c1ccc(-c2ccc(C(=O)O)cc2I)c(I)c1
GI50 [1]: > 100 µM | TGI [1]: > 100 µM | GI50 [2]: > 100 µM | TGI [2]: > 100 µM | GI50 [3]: > 100 µM | TGI [3]: > 100 µM | GI50 [4]: > 100 µM | TGI [4]: > 100 µM | GI50 [5]: > 100 µM | TGI [5]: > 100 µM | GI50 [6]: > 100 µM | TGI [6]: > 100 µM | GI50 [7]: > 100 µM | TGI [7]: > 100 µM | GI50 [8]: > 100 µM | TGI [8]: > 100 µM | GI50 [9]: > 100 µM | TGI [9]: > 100 µM | GI50 [10]: > 100 µM | TGI [10]: > 100 µM

CCCCCC(=O)OCC(=O)O[C@@H]1C[C@]2(C(C)C)O[C@@]1(C)[C@@H]1CC[C@@H](C)[C@H]1[C@@H]2OC(=O)/C=C/c1ccccc1
GI50 [1]: 0.0525 µM | TGI [1]: 0.306 µM | GI50 [2]: 0.0923 µM | TGI [2]: 14.4 µM | GI50 [3]: 0.0329 µM | TGI [3]: 0.221 µM | TGI [4]: 0.0315 µM | GI50 [5]: > 58.2 µM | TGI [5]: > 86.4 µM | GI50 [6]: > 45.5 µM | TGI [6]: > 100 µM | GI50 [7]: > 46.6 µM | TGI [7]: > 67.3 µM | GI50 [8]: > 68.2 µM | TGI [8]: > 100 µM | GI50 [9]: 19.7 µM | TGI [9]: > 100 µM | GI50 [10]: > 40.7 µM | TGI [10]: > 67.6 µM
